Measured values from US11214803B2, “Modulators of YAP1 expression” (Ionis Pharmaceuticals, Inc., priority 2019, dated 2022).
Strand notation (5' to 3'): a small letter for the sugar, then the base; units joined by * are phosphorothioate-linked, units joined directly phosphodiester-linked; [ ] holds rarer units or linkages, { } end groups; capitals alone tell only the bases. k = constrained ethyl (cEt); [5mC] = 5-methylcytosine; d = 2'-deoxy (DNA)

System: Yap1 mRNA
Test: Antisense inhibition of human Yap1 in A-431 cells by cEt gapmers, single dose (Example 4, RTS4814)
Type: cell-based
Method in brief: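 A-431 cells took up 3-10-3 cEt gapmers (16-mer, full phosphorothioate, 5-methylcytosines) by free uptake at 2,000 nM for about 48 h. Yap1 mRNA was quantified by qRT-PCR, normalized to total RNA (RIBOGREEN), and reported as % of untreated control.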

[1] = Yap1 mRNA remaining as percent of untreated control, 3-10-3 cEt gapmers, A-431 cells, Table 36
[2] = Table 15, A-431 cells, 5,000 cells per well, free uptake, 2,000 nM, approximately 48 hours, RTS4814, normalized to RIBOGREEN, Yap1 mRNA relative to untreated control, * = targets amplicon region of primer probe set
[3] = Table 14, A-431 cells, 5,000 cells per well, free uptake, 2,000 nM, approximately 48 hours, RTS4814, normalized to RIBOGREEN, Yap1 mRNA relative to untreated control, * = targets amplicon region of primer probe set
[4] = Table 16, A-431 cells, 5,000 cells per well, free uptake, 2,000 nM, approximately 48 hours, RTS4814, normalized to RIBOGREEN, Yap1 mRNA relative to untreated control cells
[5] = Table 17, A-431 cells, 5,000 cells per well, free uptake, 2,000 nM, approximately 48 hours, RTS4814, normalized to RIBOGREEN, Yap1 mRNA relative to untreated control cells
[6] = Yap1 mRNA remaining as percent of untreated control, 3-10-3 cEt gapmers, A-431 cells, Table 37

## 1076086 (kA*kA*k[5mC]*dT*dA*dA*dT*dA*dG*dG*d[5mC]*d[5mC]*dA*kT*k[5mC]*kT; antisense) [compound 1076086]
[1]
  YAP1 (% UTC): 31 % UTC

## 1075905 (k[5mC]*k[5mC]*kT*dG*dA*dA*d[5mC]*dA*d[5mC]*dA*dG*dG*dA*kG*kT*kA; antisense) [Compound 1075905]
[2]
  YAP1 (% UTC): 43 % UTC

## 1074849 (kT*kG*kT*dT*dA*dT*dG*dA*dT*dA*dG*dG*d[5mC]*kA*k[5mC]*kA; antisense) [Compound 1074849]
[2]
  YAP1 (% UTC): 18 % UTC

## 1076065 (k[5mC]*kT*kT*dT*dA*dG*dT*dA*dA*d[5mC]*dA*d[5mC]*dG*kA*kA*kT; antisense) [Compound 1076065]
[2]
  YAP1 (% UTC): 36 % UTC

## 1074720 (antisense kG*kA*kA*dG*dA*dT*d[5mC]*dT*d[5mC]*d[5mC]*dA*dT*dA*kT*kT*k[5mC]) [Compound 1074720]
[3]
  YAP1 (% UTC): 58 % UTC

## 1075040 (antisense kT*kT*kA*dT*dA*dA*dA*dG*dA*dG*dG*d[5mC]*dT*k[5mC]*kA*kG) [Compound 1075040]
[3]
  YAP1 (% UTC): 10 % UTC

## 1074178 (antisense kG*k[5mC]*k[5mC]*dT*d[5mC]*d[5mC]*d[5mC]*d[5mC]*d[5mC]*dG*dA*d[5mC]*dG*k[5mC]*kG*k[5mC]) [Compound 1074178]
[4]
  YAP1 (% UTC): 95 % UTC

## 1076129 (k[5mC]*kA*kT*dA*dA*dA*d[5mC]*d[5mC]*dT*dT*dA*dG*dT*k[5mC]*k[5mC]*kT; antisense) [Compound 1076129]
[2]
  YAP1 (% UTC): 26 % UTC

## 1076352 (kG*kA*kT*dA*dA*d[5mC]*d[5mC]*d[5mC]*dT*dG*dA*dA*dA*k[5mC]*kA*kA; antisense) [Compound 1076352]
[3]
  YAP1 (% UTC): 37 % UTC

## 1075286 (antisense kA*kT*kT*dA*d[5mC]*dG*dG*dA*d[5mC]*dA*dG*dA*dA*kG*kT*kG) [compound 1075286]
[1]
  YAP1 (% UTC): 48 % UTC

## 1075682 (kG*kA*kT*dA*dA*dT*dT*dA*dT*dT*dA*d[5mC]*d[5mC]*k[5mC]*k[5mC]*kT; antisense) [Compound 1075682]
[4]
  YAP1 (% UTC): 35 % UTC

## 1076099 (k[5mC]*k[5mC]*kT*d[5mC]*dA*dA*dA*dA*d[5mC]*dT*dT*dG*dG*kA*kT*kT; antisense) [Compound 1076099]
[5]
  YAP1 (% UTC): 41 % UTC

## 1074295 (antisense kT*kG*kG*dT*dT*dG*dG*dA*dG*dT*dT*dG*d[5mC]*kT*kG*k[5mC]) [compound 1074295]
[6]
  YAP1 (% UTC): 15 % UTC

## 1075254 (kT*k[5mC]*k[5mC]*d[5mC]*dA*dA*dA*dA*dG*dT*d[5mC]*dA*dT*k[5mC]*kG*k[5mC]; antisense) [compound 1075254]
[1]
  YAP1 (% UTC): 28 % UTC

## 1075747 (kA*kT*kT*dT*dA*dG*d[5mC]*dA*dT*dG*dA*dT*dT*kA*kA*k[5mC]; antisense) [Compound 1075747]
[5]
  YAP1 (% UTC): 43 % UTC

## 1076566 (kA*kA*kT*dT*dA*d[5mC]*dA*dG*dT*dG*dT*d[5mC]*dT*k[5mC]*kA*k[5mC]; antisense) [compound 1076566]
[1]
  YAP1 (% UTC): 63 % UTC

## 1074134 (k[5mC]*kG*k[5mC]*dG*dG*d[5mC]*d[5mC]*d[5mC]*d[5mC]*dG*d[5mC]*dA*dT*k[5mC]*k[5mC]*k[5mC]; antisense) [compound 1074134]
[1]
  YAP1 (% UTC): 79 % UTC

## 1074403 (antisense kG*k[5mC]*kT*dT*dA*dT*dG*dG*dA*dA*dA*dT*dT*kT*k[5mC]*k[5mC]) [Compound 1074403]
[5]
  YAP1 (% UTC): 9 % UTC

## 1075107 (antisense kT*kA*kA*dA*dA*dA*d[5mC]*dA*dT*dT*dG*dT*dG*kG*k[5mC]*k[5mC]) [Compound 1075107]
[5]
  YAP1 (% UTC): 114 % UTC

## 1075170 (antisense kA*k[5mC]*kT*dA*dA*dA*dA*dT*d[5mC]*d[5mC]*d[5mC]*d[5mC]*dA*kA*kG*kG) [Compound 1075170]
[4]
  YAP1 (% UTC): 94 % UTC

## 1076035 (kG*kT*kA*dA*dT*dT*dA*dG*dA*dA*dA*d[5mC]*dT*kT*kG*kG; antisense) [Compound 1076035]
[5]
  YAP1 (% UTC): 9 % UTC

## 1074818 (kA*k[5mC]*kT*dG*dA*dA*dT*dA*dT*dT*dG*d[5mC]*d[5mC]*kA*k[5mC]*k[5mC]; antisense) [Compound 1074818]
[4]
  YAP1 (% UTC): 12 % UTC

## 1074946 (antisense k[5mC]*k[5mC]*kA*dA*dA*dA*d[5mC]*d[5mC]*d[5mC]*dT*dT*dT*dG*kG*kT*k[5mC]) [Compound 1074946]
[4]
  YAP1 (% UTC): 109 % UTC

## 1074912 (antisense kA*kT*k[5mC]*d[5mC]*d[5mC]*dG*dA*dG*dT*dG*dG*dG*d[5mC]*kT*kA*kA) [Compound 1074912]
[3]
  YAP1 (% UTC): 85 % UTC

## 1076384 (kT*kA*kT*dA*dA*dG*dG*dG*dA*d[5mC]*dT*dT*dG*k[5mC]*kT*kG; antisense) [Compound 1076384]
[3]
  YAP1 (% UTC): 25 % UTC

## 1075650 (kA*kT*kA*dT*dT*dA*d[5mC]*dA*dA*dT*d[5mC]*d[5mC]*d[5mC]*kA*kG*k[5mC]; antisense) [Compound 1075650]
[4]
  YAP1 (% UTC): 48 % UTC

## 1075649 (k[5mC]*kT*kT*d[5mC]*dA*dA*dT*dA*dA*dA*dG*dT*dG*kG*kG*kA; antisense) [Compound 1075649]
[2]
  YAP1 (% UTC): 56 % UTC

## 1076289 (kA*kA*k[5mC]*dG*dG*dA*d[5mC]*dA*dA*d[5mC]*dT*dT*dA*kA*k[5mC]*kA; antisense) [Compound 1076289]
[2]
  YAP1 (% UTC): 21 % UTC

## 1075062 (antisense k[5mC]*kT*kT*dT*dA*dA*d[5mC]*d[5mC]*dT*dT*dA*dT*dA*k[5mC]*kT*kT) [compound 1075062]
[1]
  YAP1 (% UTC): 58 % UTC

## 1074902 (antisense k[5mC]*kT*kA*dT*dT*dA*dA*d[5mC]*dT*dT*dT*dT*dG*kG*kG*k[5mC]) [compound 1074902]
[1]
  YAP1 (% UTC): 54 % UTC

## 1076087 (k[5mC]*kA*kA*dA*d[5mC]*dT*dA*dA*dT*dA*dG*dG*d[5mC]*k[5mC]*kA*kT; antisense) [compound 1076087]
[6]
  YAP1 (% UTC): 10 % UTC

## 1074839 (kT*kA*kT*dA*dA*d[5mC]*dA*dA*d[5mC]*dA*dT*dG*d[5mC]*kT*kT*kG; antisense) [compound 1074839]
[6]
  YAP1 (% UTC): 33 % UTC

## 1074391 (kG*kT*k[5mC]*dA*dG*dA*dA*d[5mC]*dT*d[5mC]*dA*dA*dA*kG*k[5mC]*kT; antisense) [compound 1074391]
[6]
  YAP1 (% UTC): 14 % UTC

## 1076182 (k[5mC]*kT*kA*dT*dA*dA*dT*dT*dA*dG*d[5mC]*d[5mC]*dA*kA*k[5mC]*k[5mC]; antisense) [compound 1076182]
[1]
  YAP1 (% UTC): 15 % UTC

## 1074368 (antisense kG*kA*kT*dA*dG*dT*dA*dT*d[5mC]*dA*d[5mC]*d[5mC]*dT*kG*kT*kA) [Compound 1074368]
[3]
  YAP1 (% UTC): 8 % UTC

## 1075234 (antisense kG*kT*kA*dA*dA*dT*dA*d[5mC]*dT*d[5mC]*dT*dA*dG*kT*kT*k[5mC]) [Compound 1075234]
[4]
  YAP1 (% UTC): 22 % UTC

## 1075702 (kG*kA*kG*dG*dA*dA*dG*dG*dG*d[5mC]*dA*d[5mC]*d[5mC]*kT*kT*kT; antisense) [compound 1075702]
[1]
  YAP1 (% UTC): 81 % UTC

## 1075009 (antisense kA*kT*kA*dA*dT*d[5mC]*dG*dA*dA*d[5mC]*dA*dT*dT*kG*kT*kG) [Compound 1075009]
[2]
  YAP1 (% UTC): 43 % UTC

## 1075030 (antisense kT*kT*kA*dA*dT*dA*dT*dT*d[5mC]*dG*dA*d[5mC]*dA*k[5mC]*kT*kG) [compound 1075030]
[1]
  YAP1 (% UTC): 37 % UTC

## 1075232 (antisense kA*kT*kT*dT*dA*dT*d[5mC]*dA*dG*d[5mC]*d[5mC]*dA*dT*kT*kG*kT) [Compound 1075232]
[3]
  YAP1 (% UTC): 13 % UTC

## 1074529 (kG*k[5mC]*kA*dG*dA*d[5mC]*dT*dG*d[5mC]*d[5mC]*d[5mC]*d[5mC]*dA*kA*k[5mC]*k[5mC]; antisense) [Compound 1074529]
[2]
  YAP1 (% UTC): 50 % UTC

## 1074647 (antisense k[5mC]*kA*kA*dA*dT*dT*dG*dA*dA*dG*dG*dG*d[5mC]*k[5mC]*kA*kA) [compound 1074647]
[6]
  YAP1 (% UTC): 27 % UTC

## 1075970 (kG*k[5mC]*kT*dT*dA*dA*dA*dA*dG*dG*dA*d[5mC]*dA*kG*kT*kA; antisense) [Compound 1075970]
[4]
  YAP1 (% UTC): 34 % UTC

## 1074723 (antisense kG*kG*kT*dA*dA*dA*dG*dG*dA*dA*dG*dA*dT*k[5mC]*kT*k[5mC]) [Compound 1074723]
[5]
  YAP1 (% UTC): 6 % UTC

## 1076417 (k[5mC]*kT*kT*dT*dA*d[5mC]*dA*d[5mC]*d[5mC]*dG*dA*dA*dA*kT*kG*kA; antisense) [Compound 1076417]
[2]
  YAP1 (% UTC): 42 % UTC

## 1075543 (kA*kT*kA*dT*dA*dT*dT*dA*dG*dG*dA*dG*dT*kT*kT*k[5mC]; antisense) [compound 1075543]
[6]
  YAP1 (% UTC): 22 % UTC

## 1076128 (kT*k[5mC]*kT*dA*dA*dA*d[5mC]*d[5mC]*dT*dA*dA*dA*dG*kA*k[5mC]*kT; antisense) [Compound 1076128]
[3]
  YAP1 (% UTC): 118 % UTC

## 1076003 (kA*kA*kT*dT*dT*dA*dA*dT*dG*dG*d[5mC]*dT*dT*kG*k[5mC]*kA; antisense) [Compound 1076003]
[5]
  YAP1 (% UTC): 8 % UTC

## 1076227 (kA*k[5mC]*kT*dT*dA*dT*dA*dA*dG*dG*d[5mC]*d[5mC]*dA*kG*k[5mC]*kA; antisense) [Compound 1076227]
[5]
  YAP1 (% UTC): 16 % UTC

## 1074966 (antisense kA*kT*kT*dG*dA*dA*dG*dT*dG*dT*dT*dT*dA*kG*kG*k[5mC]) [compound 1074966]
[1]
  YAP1 (% UTC): 9 % UTC
